In ChEMBL document CHEMBL4613271, “Application of Atypical Acetyl-lysine Methyl Mimetics in the Development of Selective Inhibitors of the Bromodomain-Containing Protein 7 (BRD7)/Bromodomain-Containing Protein 9 (BRD9) Bromodomains” (J Med Chem, 2020):
≈ marks a conversion by molar mass, not a printed value. Calls of active or inactive are those of the source. The calls are words filed in the database; no cut-off is given here.

Tests used:
[1] = molecular target: T1, Bromodomain-containing protein 9 (Homo sapiens, UniProt Q9H8M2)
T1 sequence (Q9H8M2 whole entry): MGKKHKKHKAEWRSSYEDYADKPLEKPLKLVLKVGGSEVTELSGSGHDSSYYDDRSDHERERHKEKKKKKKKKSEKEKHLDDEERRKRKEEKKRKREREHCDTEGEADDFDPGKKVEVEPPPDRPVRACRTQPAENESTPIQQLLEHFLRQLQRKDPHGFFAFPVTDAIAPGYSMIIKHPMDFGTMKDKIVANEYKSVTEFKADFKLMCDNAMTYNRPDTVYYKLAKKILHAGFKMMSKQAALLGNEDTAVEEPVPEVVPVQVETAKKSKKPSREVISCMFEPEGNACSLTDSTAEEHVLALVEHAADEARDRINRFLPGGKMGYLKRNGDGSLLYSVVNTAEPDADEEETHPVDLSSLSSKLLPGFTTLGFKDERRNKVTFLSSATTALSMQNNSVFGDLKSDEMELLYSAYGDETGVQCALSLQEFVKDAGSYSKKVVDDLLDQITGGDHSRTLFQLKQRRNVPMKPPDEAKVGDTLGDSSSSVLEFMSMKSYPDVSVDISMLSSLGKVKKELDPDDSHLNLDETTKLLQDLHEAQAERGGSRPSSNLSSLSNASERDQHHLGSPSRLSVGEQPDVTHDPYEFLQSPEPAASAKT

[2] = molecular target: T2, Bromodomain-containing protein 7 (Homo sapiens, UniProt Q9NPI1); assay: Binding affinity to BRD7 (unknown origin)
T2 sequence (Q9NPI1 whole entry): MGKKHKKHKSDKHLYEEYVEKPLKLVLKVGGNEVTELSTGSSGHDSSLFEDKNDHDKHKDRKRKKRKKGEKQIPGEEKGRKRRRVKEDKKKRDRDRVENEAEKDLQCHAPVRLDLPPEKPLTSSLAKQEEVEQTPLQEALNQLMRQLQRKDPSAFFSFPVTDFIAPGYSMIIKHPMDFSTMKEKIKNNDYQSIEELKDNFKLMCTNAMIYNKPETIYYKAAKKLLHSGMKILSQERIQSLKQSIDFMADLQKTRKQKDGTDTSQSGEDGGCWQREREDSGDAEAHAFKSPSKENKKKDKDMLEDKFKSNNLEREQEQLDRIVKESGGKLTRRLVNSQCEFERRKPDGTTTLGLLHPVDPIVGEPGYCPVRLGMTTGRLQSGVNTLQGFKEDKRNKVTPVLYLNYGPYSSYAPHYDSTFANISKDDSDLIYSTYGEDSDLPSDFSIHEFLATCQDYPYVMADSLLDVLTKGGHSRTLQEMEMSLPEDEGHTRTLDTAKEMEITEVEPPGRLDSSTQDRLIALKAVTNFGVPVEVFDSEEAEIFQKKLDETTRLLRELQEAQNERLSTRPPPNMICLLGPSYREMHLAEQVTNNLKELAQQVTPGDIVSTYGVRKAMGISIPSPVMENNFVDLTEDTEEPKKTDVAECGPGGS

[3] = molecular target: T1, Bromodomain-containing protein 9; assay: Binding affinity to BRD9 (unknown origin) N-terminal bromodomain by TR-FRET assay
[4] = Permeability by PAMPA; assay type: ADME; conditions: read-out: permeability
[5] = molecular target: T3, Bromodomain-containing protein 4 (Homo sapiens, UniProt O60885); assay: Binding affinity to human partial length BRD4 (1) (N44 to E168 residues) expressed in bacterial expression system by BROMOscan assay
[6] = molecular target: B-cell CLL/lymphoma 7 protein family member A (Homo sapiens) (UniProt Q4VC05); assay: Binding affinity to BCL7A in human HuT78 cells nuclear and chromatin extracts at 10 uM incubated for 45 mins by mass spectrometry based chemoproteomic binding assay; assay type: cell-based
[7] = molecular target: Protein polybromo-1 (Homo sapiens) (UniProt Q86U86); assay: Binding affinity to PBRM1 in human HuT78 cells nuclear and chromatin extracts at 10 uM incubated for 45 mins by mass spectrometry based chemoproteomic binding assay; assay type: cell-based
[8] = molecular target: B-cell CLL/lymphoma 7 protein family member B (Homo sapiens) (UniProt Q9BQE9); assay: Binding affinity to BCL7B in human HuT78 cells nuclear and chromatin extracts at 10 uM incubated for 45 mins by mass spectrometry based chemoproteomic binding assay; assay type: cell-based
[9] = molecular target: T1, Bromodomain-containing protein 9; remark: listed apart in the source
Description: Binding affinity to human partial length BRD9 (R130 to V259 residues) expressed in bacterial expression system by BROMOscan assay

Homo sapiens = species on record: Homo sapiens; assay: Selectivity index, ratio of IC50 for binding affinity to BRD4 (1) (unknown origin) N-terminal bromodomain to IC50 for binding affinity to BRD9 (unknown origin) N-terminal bromodomain
[10] = molecular target: SWI/SNF-related matrix-associated actin-dependent regulator of chromatin subfamily A member 4 (Homo sapiens) (UniProt P51532); assay: Binding affinity to SMARCA4 in human HuT78 cells nuclear and chromatin extracts at 10 uM incubated for 45 mins by mass spectrometry based chemoproteomic binding assay; assay type: cell-based
[11] = molecular target: SWI/SNF-related matrix-associated actin-dependent regulator of chromatin subfamily A member 2 (Homo sapiens) (UniProt P51531); assay: Binding affinity to SMARCA2 in human HuT78 cells nuclear and chromatin extracts at 10 uM incubated for 45 mins by mass spectrometry based chemoproteomic binding assay; assay type: cell-based
[12] = Chromatographic hydrophobicity index, logD of the compound at pH 7.4 by HPLC analysis; assay type: physicochemical; conditions: buffer
[13] = Solubility of compound by CLND method; assay type: physicochemical
[14] = molecular target: T4, Bromodomain-containing protein 7 (Homo sapiens) (UniProt Q9NPI1); assay: Binding affinity to BRD7 in human HuT78 cells nuclear and chromatin extracts at 10 uM incubated for 45 mins by mass spectrometry based chemoproteomic binding assay; assay type: cell-based
T4 sequence (whole entry): T2 sequence (Q9NPI1 whole entry)

[15] = molecular target: T2, Bromodomain-containing protein 7; assay: Binding affinity to human partial length BRD7 (L125 to R254 residues) expressed in mammalian expression system by BROMOscan assay
[16] = molecular target: T3, Bromodomain-containing protein 4; assay: Binding affinity to BRD4 (1) (unknown origin) N-terminal bromodomain by TR-FRET assay
Peregrin = molecular target: T5, Peregrin (Homo sapiens, UniProt P55201); assay: Binding affinity to human partial length BRPF1 (E627 to G740 residues) expressed in bacterial expression system by BROMOscan assay
T5 sequence (P55201 whole entry): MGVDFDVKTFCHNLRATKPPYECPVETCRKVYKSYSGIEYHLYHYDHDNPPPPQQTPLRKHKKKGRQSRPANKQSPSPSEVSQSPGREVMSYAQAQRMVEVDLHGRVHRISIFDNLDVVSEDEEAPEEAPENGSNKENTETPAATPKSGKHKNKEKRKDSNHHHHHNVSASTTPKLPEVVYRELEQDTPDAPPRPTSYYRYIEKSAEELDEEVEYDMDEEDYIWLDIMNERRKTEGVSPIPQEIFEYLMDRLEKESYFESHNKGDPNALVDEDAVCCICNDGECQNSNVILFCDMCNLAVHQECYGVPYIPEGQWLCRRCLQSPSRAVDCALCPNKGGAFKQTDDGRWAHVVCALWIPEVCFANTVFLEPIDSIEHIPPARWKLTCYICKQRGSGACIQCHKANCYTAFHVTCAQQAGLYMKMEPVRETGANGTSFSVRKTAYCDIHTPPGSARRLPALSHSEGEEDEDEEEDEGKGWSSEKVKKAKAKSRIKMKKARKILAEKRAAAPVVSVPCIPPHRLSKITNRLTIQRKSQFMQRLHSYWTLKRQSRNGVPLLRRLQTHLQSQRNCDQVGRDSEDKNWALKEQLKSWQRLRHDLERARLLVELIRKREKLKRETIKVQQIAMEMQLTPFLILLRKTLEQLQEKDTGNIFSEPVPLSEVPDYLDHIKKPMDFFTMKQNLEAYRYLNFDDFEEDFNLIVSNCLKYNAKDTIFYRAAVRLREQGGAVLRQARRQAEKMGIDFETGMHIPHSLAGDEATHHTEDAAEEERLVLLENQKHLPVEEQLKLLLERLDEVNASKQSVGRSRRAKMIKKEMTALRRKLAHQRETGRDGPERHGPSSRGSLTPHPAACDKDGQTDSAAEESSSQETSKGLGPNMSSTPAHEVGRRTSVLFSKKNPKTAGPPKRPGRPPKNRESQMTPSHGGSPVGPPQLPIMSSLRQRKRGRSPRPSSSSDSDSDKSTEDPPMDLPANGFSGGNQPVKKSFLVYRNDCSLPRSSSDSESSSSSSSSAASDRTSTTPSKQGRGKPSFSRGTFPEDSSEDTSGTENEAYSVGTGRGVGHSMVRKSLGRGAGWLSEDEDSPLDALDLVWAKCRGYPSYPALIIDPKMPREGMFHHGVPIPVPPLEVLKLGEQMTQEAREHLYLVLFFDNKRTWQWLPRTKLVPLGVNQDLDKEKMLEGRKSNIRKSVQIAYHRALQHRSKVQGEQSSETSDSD

[17] = Drug distribution in human HeLa cells assessed as intracellular influx/efflux ratio by mass spectrometry; assay type: ADME, cell-based

Protein polybromo-1 (Homo sapiens), sequence (Q86U86 whole entry): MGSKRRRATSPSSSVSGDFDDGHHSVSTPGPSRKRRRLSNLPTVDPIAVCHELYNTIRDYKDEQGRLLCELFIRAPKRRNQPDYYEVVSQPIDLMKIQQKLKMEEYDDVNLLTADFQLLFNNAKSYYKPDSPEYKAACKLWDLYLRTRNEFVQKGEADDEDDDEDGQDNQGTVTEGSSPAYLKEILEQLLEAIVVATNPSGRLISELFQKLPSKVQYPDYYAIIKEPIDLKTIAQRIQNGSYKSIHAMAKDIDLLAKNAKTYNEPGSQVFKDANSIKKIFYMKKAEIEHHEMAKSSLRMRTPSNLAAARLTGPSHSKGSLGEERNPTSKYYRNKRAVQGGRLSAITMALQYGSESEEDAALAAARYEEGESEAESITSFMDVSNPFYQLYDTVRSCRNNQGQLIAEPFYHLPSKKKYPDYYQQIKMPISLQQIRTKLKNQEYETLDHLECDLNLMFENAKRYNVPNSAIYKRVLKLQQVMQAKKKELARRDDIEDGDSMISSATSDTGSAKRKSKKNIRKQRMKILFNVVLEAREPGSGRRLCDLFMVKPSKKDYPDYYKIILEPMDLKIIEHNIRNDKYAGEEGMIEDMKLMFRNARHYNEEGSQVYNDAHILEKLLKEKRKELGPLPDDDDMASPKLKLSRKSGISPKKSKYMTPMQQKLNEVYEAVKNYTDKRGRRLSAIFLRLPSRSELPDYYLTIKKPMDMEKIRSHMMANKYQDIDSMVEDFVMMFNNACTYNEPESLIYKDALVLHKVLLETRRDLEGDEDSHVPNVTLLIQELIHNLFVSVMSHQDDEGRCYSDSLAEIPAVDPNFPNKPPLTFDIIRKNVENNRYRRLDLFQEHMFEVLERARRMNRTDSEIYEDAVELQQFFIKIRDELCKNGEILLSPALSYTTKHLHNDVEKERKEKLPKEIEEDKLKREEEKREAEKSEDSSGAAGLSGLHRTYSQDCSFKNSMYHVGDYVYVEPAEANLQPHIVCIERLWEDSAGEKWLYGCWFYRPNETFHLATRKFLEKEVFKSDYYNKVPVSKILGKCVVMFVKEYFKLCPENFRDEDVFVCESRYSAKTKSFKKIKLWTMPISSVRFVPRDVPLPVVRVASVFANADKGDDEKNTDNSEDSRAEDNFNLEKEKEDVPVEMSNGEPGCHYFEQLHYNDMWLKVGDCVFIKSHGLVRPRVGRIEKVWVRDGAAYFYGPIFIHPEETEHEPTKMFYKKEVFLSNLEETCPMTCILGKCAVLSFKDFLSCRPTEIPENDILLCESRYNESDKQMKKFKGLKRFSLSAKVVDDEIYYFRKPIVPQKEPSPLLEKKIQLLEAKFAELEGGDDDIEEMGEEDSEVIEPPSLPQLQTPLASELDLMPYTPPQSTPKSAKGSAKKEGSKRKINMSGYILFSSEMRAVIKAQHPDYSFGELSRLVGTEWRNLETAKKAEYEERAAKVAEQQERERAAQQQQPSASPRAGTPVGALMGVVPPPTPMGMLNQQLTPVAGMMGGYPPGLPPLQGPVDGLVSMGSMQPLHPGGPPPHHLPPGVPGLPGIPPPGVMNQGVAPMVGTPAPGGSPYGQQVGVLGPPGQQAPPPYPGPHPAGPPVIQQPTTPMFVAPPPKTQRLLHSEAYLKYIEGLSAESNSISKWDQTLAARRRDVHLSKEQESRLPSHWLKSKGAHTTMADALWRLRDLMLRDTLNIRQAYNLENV
SWI/SNF-related matrix-associated actin-dependent regulator of chromatin subfamily A member 4 (Homo sapiens), sequence (P51532 whole entry): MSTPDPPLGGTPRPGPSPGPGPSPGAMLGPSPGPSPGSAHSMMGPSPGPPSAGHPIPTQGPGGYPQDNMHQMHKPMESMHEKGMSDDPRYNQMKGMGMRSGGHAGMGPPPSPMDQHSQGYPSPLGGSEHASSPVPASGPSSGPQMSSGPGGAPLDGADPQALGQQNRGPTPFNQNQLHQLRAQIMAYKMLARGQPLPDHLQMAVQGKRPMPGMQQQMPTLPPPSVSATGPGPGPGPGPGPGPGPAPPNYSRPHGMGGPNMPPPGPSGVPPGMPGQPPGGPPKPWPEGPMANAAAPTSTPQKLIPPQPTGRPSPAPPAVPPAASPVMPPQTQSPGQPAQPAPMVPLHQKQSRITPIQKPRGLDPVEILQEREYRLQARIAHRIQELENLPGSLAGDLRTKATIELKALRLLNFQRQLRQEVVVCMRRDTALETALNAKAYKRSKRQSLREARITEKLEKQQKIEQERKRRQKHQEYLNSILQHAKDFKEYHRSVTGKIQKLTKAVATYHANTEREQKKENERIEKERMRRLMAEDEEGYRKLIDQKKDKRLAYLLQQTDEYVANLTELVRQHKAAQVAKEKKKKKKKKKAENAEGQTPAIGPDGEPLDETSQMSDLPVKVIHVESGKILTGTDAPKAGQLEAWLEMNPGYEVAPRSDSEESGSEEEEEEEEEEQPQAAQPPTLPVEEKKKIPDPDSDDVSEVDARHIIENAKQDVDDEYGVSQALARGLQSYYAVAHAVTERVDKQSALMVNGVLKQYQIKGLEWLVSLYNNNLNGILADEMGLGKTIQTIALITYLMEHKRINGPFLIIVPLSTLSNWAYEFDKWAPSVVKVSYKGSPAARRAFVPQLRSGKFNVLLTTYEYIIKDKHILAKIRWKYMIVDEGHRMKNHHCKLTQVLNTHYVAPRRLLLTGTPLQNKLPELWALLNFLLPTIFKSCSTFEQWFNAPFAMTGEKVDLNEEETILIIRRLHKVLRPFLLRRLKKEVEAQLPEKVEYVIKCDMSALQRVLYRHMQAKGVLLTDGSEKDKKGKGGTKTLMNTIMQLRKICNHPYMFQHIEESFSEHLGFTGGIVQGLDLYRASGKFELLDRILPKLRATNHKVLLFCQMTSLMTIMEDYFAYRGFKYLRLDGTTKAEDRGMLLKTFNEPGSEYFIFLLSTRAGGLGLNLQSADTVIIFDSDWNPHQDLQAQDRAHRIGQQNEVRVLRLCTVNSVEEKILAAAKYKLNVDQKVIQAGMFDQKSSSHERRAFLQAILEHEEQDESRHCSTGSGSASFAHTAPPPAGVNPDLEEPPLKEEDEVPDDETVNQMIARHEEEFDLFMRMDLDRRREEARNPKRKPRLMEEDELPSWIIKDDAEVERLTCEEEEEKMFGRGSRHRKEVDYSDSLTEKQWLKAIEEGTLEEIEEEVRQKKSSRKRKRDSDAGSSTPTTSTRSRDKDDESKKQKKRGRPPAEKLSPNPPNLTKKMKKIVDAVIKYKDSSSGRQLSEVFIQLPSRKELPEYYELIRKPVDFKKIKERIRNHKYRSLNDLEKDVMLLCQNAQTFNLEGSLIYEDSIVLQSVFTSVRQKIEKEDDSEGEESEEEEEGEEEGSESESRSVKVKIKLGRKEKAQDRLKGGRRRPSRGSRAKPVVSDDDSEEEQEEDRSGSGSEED
B-cell CLL/lymphoma 7 protein family member B (Homo sapiens), sequence (Q9BQE9 whole entry): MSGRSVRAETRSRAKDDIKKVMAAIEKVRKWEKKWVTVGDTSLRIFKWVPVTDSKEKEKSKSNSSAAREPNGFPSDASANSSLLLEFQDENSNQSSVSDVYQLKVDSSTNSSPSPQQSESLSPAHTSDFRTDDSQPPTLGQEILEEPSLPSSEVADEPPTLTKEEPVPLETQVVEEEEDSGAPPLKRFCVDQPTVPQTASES
B-cell CLL/lymphoma 7 protein family member A (Homo sapiens), sequence (Q4VC05 whole entry): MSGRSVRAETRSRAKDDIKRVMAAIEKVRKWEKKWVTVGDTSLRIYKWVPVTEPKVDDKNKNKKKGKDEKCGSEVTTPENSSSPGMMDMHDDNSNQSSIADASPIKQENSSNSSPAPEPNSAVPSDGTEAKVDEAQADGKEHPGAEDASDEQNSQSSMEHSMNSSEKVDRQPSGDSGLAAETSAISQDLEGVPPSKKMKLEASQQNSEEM

| Kd [1] | Kd [2] | IC50 [3] | Activity [6] | Activity [7] | Activity [8] | fold selectivity (Homo sapiens) | Activity [10] | Activity [11] | Activity [14] | IC50 [16] | Structure (SMILES) | Papp [4] | Ki [5] | Ki [9] | chromatographic logD [12] | solubility kinetic [13] | Ki [15] | Ki (Peregrin) | Ratio [17] |
| --- | --- | --- | --- | --- | --- | --- | --- | --- | --- | --- | --- | --- | --- | --- | --- | --- | --- | --- | --- |
| 2 nM | 100 nM |  |  |  |  |  |  |  |  |  | C/C=C/Cn1cc(-c2cc(OC)c(C(=O)N3CCOCC3)cc2OC)c2cc[nH]c2c1=O |  |  |  |  |  |  |  |  |
|  |  | 200 nM | Active | Active | Active | > 250 | Active | Active | Active | > 50100 nM | Cc1c(NCc2ccccc2N2CCN(C)CC2)cnn(C)c1=O | 33 ×10⁻⁶ cm/s | 25100 nM | 39.8 nM | 1.6 | 178 µg/mL (≈ 544 µM) | 25.1 nM | 251 nM |  |
|  |  |  |  |  |  |  |  |  |  |  | CCCCc1c(NCc2ccccc2N2CCN(C)CC2)cnn(C)c1=O | 25 ×10⁻⁶ cm/s | > 31600 nM | 63.1 nM | 3.5 | ≥ 228 µg/mL | 501 nM | > 31600 nM | 0.52 |
